From article PMC6973281 (2019)

Tests used:
[1] = tested on: 22AG (DNA, G4) AGGGTTAGGGTTAGGGTTAGGG; assay: spectrophotometric titration; details: K+ 73 mM; K-phosphate buffer pH 7.0, 5 % v/v DMSO, 20 °C; 5 μM compound; isotherm could not be fitted
[2] = tested on: 22AG (DNA, G4) AGGGTTAGGGTTAGGGTTAGGG; assay: spectrophotometric titration, independent-site fit; details: K+ 73 mM; K-phosphate buffer pH 7.0, 5 % v/v DMSO, 20 °C; 5 μM compound; unit not given

binding [1] | K 22AG [2] | SMILES
weak |  | CCOC(=O)c1csc(/N=N/c2nc(C(=O)OCC)c(NCCCN(C)C)s2)n1
 | 2.4×10^4 | CCOC(=O)c1nc(/N=N/c2nc(C(=O)OCC)c(NCCCN(C)C)s2)sc1NCCCN(C)C
